Patent US20250120924A1, “COMPOSITIONS OF TAURINE AND MALIC ACID AND METHODS OF MAKING THE COMPOSITIONS” (NutriScience Innovations LLC, priority 2023, published 2025)

Test system: Wild-type nematodes
Assay: Nematode lifespan/survival in microfluidic chips
Type: in vivo
Details: versus control, FIG. 4
Protocol: EXAMPLE 8—Animal Studies: A nematode animal model was used to evaluate lifespan/survival and energy/activity. Wild-type nematodes were loaded into microfluidic chips and were fed […] E. coli OP50 in NGM buffer food source. The methods have been previously described. Nematode lifespan was measured by survival at standard 18 days, while nematode activity was measured at an optimum 15 days using a visual score. Dosing of 2:1 taurine to malic acid molar ratio composition (composition #4, Example 1) was made using the methodology described previously was at 200 micrograms/ml/day, with the solid composition being dissolved in the aqueous feed. This is equivalent to a human dose of 5 grams per day for these animals. The 5 gram per day human dose equivalent represents a dose of 3.26 grams of taurine and 1.74 grams of malic acid (2:1 molar ratio). The results were compared with taurine alone (human equivalent dose 3.26 grams), and malic acid alone (1.74 grams malic acid).
Eighteen days is the typical survival time for nematodes. Eighteen days may be considered “old-age” for these animals. […] This unexpected synergistic effect has not been previously observed. […] Specific energy/activity levels of the neamtodes was measured at an optimum 15 days of life (which may be considered “middle-age”).

| Structure (SMILES) | nematode survival at 18 days (taurine alone, human equivalent dose 3.26 grams) | nematode survival at 18 days (malic acid alone, human equivalent dose 1.74 grams) |
| --- | --- | --- |
| NCCS(=O)(=O)O [taurine, 2-aminoethanesulfonic acid] | did not improve survival times versus control | – |
| O=C(O)CC(O)C(=O)O (centres unmarked) [malic acid] | – | did not improve survival times versus control |
